# Results: article PMC11480411, “Mucosal sugars delineate pyrazine vs pyrazinone autoinducer signaling in Klebsiella oxytoca” (Nature Communications, 2024)
# Where “and” joins values, the source holds several entries; their conditions need not be identical. Equal entries are not always repeated.
# Legend:
# Type in all cases: cell-based
# MC1R = target: T1, MC1R (Homo sapiens, UniProt Q01726); assay: PRESTO-Tango GPCR screen; conditions: 100 µM
# T1 construct: purchased PRESTO-Tango GPCR kit (Roth lab / Addgene)
# Summary of the method: (§1)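 HTLA cells (HEK293 stably expressing β-arrestin-TEV and tTA-luciferase) transiently transfected with GPCR-Tango plasmids, then exposed to compound at 100 μM final for 20 h. Luminescence read after Bright-Glo; activation fold = RLU over PBS control. Dose-response spanned 10^−4 M to 10^−15 M.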
# GPR116 = target: T2, GPR116 (Homo sapiens, UniProt Q8IZF2); assay: PRESTO-Tango GPCR screen; conditions: 100 µM
# T2 construct: purchased PRESTO-Tango GPCR kit (Roth lab / Addgene)
# Summary of the method: as §1
# AGTR2 = target: T3, AGTR2 (Homo sapiens, UniProt P50052); assay: PRESTO-Tango GPCR screen; conditions: 100 µM
# T3 construct: purchased PRESTO-Tango GPCR kit (Roth lab / Addgene)
# Summary of the method: as §1
# BDKBR1 = target: T4, BDKBR1 (Homo sapiens, UniProt P46663); assay: PRESTO-Tango GPCR screen; conditions: 100 µM
# T4 construct: purchased PRESTO-Tango GPCR kit (Roth lab / Addgene)
# T4 sequence (P46663 whole entry): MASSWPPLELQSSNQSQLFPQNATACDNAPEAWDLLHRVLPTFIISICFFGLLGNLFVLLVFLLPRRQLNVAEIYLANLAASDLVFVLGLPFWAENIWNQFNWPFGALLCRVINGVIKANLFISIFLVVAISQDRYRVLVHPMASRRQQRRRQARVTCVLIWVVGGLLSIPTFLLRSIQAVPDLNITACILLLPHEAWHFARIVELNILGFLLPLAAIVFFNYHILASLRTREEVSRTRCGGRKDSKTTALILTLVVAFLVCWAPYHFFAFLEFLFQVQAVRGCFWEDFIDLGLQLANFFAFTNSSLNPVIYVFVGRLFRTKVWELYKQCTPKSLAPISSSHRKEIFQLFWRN
# Summary of the method: as §1
# HTR1B = target: T5, HTR1B (Homo sapiens, UniProt P28222); assay: PRESTO-Tango GPCR screen; conditions: 100 µM
# T5 construct: purchased PRESTO-Tango GPCR kit (Roth lab / Addgene)
# T5 sequence (P28222 whole entry): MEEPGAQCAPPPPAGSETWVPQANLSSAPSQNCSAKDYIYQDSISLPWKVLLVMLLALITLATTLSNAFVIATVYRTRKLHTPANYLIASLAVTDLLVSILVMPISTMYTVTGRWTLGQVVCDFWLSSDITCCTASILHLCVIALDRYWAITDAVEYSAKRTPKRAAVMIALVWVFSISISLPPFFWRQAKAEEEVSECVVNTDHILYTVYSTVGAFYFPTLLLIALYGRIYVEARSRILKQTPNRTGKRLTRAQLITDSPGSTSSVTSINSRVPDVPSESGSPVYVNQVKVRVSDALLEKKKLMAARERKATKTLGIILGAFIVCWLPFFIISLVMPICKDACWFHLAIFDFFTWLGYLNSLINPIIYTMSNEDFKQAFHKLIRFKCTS
# Summary of the method: as §1
# CHRM3 = target: T6, CHRM3 (Homo sapiens, UniProt P20309); assay: PRESTO-Tango GPCR screen; conditions: 100 µM
# T6 construct: purchased PRESTO-Tango GPCR kit (Roth lab / Addgene)
# Summary of the method: as §1
# KISSPEPTIN-R = target: T7, KISSPEPTIN-R (Homo sapiens, UniProt Q969F8); assay: PRESTO-Tango GPCR screen; conditions: 100 µM
# T7 construct: purchased PRESTO-Tango GPCR kit (Roth lab / Addgene)
# T7 sequence (Q969F8 whole entry): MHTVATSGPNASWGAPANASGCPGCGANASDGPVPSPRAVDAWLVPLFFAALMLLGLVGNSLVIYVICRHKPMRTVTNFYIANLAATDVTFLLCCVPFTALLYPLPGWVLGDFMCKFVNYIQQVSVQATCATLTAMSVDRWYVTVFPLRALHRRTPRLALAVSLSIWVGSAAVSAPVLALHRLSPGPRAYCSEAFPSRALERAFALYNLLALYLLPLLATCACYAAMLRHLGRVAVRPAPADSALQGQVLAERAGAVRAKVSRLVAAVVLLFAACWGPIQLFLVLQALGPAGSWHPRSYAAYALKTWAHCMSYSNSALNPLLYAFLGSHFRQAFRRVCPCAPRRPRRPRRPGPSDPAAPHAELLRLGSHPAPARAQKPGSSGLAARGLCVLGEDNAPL
# Summary of the method: as §1
# PK1 = target: T8, PK1 (Homo sapiens, UniProt Q8TCW9); assay: PRESTO-Tango GPCR screen; conditions: 100 µM
# T8 construct: purchased PRESTO-Tango GPCR kit (Roth lab / Addgene)
# Summary of the method: as §1
# ADRB1 = target: T9, ADRB1 (Homo sapiens, UniProt P08588); assay: PRESTO-Tango GPCR screen; conditions: 100 µM
# T9 construct: purchased PRESTO-Tango GPCR kit (Roth lab / Addgene)
# Summary of the method: as §1
# GHSR = target: T10, GHSR (Homo sapiens, UniProt Q92847); assay: PRESTO-Tango GPCR screen; conditions: 100 µM
# T10 construct: purchased PRESTO-Tango GPCR kit (Roth lab / Addgene)
# Summary of the method: as §1
# P2RY4 = target: T11, P2RY4 (Homo sapiens, UniProt P51582); assay: PRESTO-Tango GPCR screen; conditions: 100 µM
# T11 construct: purchased PRESTO-Tango GPCR kit (Roth lab / Addgene)
# T11 sequence (P51582 whole entry): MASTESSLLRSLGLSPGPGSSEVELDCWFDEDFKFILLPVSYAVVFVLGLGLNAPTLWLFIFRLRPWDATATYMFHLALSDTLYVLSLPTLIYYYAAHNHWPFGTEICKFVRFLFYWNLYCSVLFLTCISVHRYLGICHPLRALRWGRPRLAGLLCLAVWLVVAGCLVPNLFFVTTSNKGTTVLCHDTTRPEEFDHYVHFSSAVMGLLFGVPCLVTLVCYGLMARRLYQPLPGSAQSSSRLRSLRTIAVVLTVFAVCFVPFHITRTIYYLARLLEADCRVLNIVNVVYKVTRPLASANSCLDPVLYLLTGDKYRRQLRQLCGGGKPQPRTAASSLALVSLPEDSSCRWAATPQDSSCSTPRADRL
# Summary of the method: as §1
# GPR75 = target: T12, GPR75 (Homo sapiens, UniProt O95800); assay: PRESTO-Tango GPCR screen; conditions: 100 µM
# T12 construct: purchased PRESTO-Tango GPCR kit (Roth lab / Addgene)
# T12 sequence (O95800 whole entry): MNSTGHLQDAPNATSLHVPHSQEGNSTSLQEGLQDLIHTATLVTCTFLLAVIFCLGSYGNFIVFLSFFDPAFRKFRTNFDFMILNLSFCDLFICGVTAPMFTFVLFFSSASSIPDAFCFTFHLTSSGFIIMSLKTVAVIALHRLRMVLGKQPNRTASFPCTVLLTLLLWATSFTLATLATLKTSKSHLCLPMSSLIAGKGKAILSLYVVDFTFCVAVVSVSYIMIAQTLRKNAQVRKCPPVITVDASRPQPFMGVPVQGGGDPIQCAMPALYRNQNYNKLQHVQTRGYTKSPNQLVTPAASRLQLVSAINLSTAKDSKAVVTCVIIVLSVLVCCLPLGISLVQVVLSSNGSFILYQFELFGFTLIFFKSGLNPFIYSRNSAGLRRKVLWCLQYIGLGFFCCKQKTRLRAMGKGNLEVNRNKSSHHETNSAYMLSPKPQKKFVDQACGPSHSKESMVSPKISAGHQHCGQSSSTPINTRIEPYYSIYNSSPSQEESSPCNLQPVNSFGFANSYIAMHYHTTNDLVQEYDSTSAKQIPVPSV
# Summary of the method: as §1
# GPR152 = target: T13, GPR152 (Homo sapiens, UniProt Q8TDT2); assay: PRESTO-Tango GPCR screen; conditions: 100 µM
# T13 construct: purchased PRESTO-Tango GPCR kit (Roth lab / Addgene)
# T13 sequence (Q8TDT2 whole entry): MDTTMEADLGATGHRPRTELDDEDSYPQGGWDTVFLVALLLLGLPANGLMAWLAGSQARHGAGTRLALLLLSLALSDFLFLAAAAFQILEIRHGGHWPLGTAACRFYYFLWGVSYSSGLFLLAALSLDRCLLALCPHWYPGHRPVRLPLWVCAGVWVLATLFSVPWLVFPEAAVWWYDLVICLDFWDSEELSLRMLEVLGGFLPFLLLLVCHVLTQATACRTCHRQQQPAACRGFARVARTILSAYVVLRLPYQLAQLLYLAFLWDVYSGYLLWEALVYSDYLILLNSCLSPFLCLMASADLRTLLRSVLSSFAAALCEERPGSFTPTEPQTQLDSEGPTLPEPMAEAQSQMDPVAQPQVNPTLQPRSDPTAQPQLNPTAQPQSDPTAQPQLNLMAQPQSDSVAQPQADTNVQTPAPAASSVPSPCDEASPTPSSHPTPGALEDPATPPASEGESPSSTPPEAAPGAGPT
# Summary of the method: as §1
# CHRM1 = target: T14, CHRM1 (Homo sapiens, UniProt P11229); assay: PRESTO-Tango GPCR screen; conditions: 100 µM
# T14 construct: purchased PRESTO-Tango GPCR kit (Roth lab / Addgene)
# Summary of the method: as §1
# RXFP2 = target: T15, RXFP2 (Homo sapiens, UniProt Q8WXD0); assay: PRESTO-Tango GPCR screen; conditions: 100 µM
# T15 construct: purchased PRESTO-Tango GPCR kit (Roth lab / Addgene)
# T15 sequence (Q8WXD0 whole entry): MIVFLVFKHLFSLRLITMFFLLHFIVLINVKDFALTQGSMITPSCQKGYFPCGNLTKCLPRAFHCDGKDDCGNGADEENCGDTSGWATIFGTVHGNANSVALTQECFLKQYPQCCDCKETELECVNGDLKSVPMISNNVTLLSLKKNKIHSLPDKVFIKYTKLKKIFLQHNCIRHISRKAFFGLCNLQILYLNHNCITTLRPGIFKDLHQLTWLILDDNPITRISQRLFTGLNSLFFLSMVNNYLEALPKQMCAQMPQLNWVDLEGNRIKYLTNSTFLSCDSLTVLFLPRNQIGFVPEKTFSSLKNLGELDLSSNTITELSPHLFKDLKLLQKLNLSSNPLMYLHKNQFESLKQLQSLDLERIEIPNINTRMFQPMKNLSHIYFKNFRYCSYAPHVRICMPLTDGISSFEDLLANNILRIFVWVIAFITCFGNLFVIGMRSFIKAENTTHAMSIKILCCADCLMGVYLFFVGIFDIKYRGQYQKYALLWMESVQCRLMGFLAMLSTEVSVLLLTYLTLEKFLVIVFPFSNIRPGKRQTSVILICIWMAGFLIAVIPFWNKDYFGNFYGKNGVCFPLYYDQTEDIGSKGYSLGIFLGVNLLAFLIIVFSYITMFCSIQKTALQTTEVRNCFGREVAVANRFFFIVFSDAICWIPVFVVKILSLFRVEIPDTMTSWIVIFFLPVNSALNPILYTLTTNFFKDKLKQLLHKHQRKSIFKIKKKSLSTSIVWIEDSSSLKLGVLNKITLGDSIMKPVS
# Summary of the method: as §1
# GPR113 = target: T16, GPR113 (Homo sapiens, UniProt Q8IZF5); assay: PRESTO-Tango GPCR screen; conditions: 100 µM
# T16 construct: purchased PRESTO-Tango GPCR kit (Roth lab / Addgene)
# Summary of the method: as §1
# DRD4 = target: T17, DRD4 (Homo sapiens, UniProt P21917); assay: PRESTO-Tango GPCR screen; conditions: 100 µM
# T17 construct: purchased PRESTO-Tango GPCR kit (Roth lab / Addgene)
# Summary of the method: as §1
# OPN3 = target: T18, OPN3 (Homo sapiens, UniProt Q9H1Y3); assay: PRESTO-Tango GPCR screen; conditions: 100 µM
# T18 construct: purchased PRESTO-Tango GPCR kit (Roth lab / Addgene)
# Summary of the method: as §1
# SSTR3 = target: T19, SSTR3 (Homo sapiens, UniProt P32745); assay: PRESTO-Tango GPCR screen; conditions: 100 µM
# T19 construct: purchased PRESTO-Tango GPCR kit (Roth lab / Addgene)
# Summary of the method: as §1
# DRD2 = target: T20, DRD2 (Homo sapiens, UniProt P14416); assay: PRESTO-Tango GPCR screen; conditions: 100 µM
# T20 construct: purchased PRESTO-Tango GPCR kit (Roth lab / Addgene)
# Summary of the method: as §1
# HTR2C = target: T21, HTR2C (Homo sapiens, UniProt P28335); assay: PRESTO-Tango GPCR screen; conditions: 100 µM
# T21 construct: purchased PRESTO-Tango GPCR kit (Roth lab / Addgene)
# T21 sequence (P28335 33-458): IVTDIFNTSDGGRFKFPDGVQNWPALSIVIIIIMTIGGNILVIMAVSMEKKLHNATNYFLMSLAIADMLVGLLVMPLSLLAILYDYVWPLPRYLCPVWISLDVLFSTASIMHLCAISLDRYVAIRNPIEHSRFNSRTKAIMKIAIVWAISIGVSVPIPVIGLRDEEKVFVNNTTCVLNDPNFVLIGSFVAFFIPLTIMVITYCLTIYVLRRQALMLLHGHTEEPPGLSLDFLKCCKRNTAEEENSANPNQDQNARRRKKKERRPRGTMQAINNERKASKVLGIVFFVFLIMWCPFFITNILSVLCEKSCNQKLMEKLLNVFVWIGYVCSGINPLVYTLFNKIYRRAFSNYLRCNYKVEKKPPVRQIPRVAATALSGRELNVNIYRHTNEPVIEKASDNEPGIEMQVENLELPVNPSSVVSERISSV
# Summary of the method: as §1
# NPY4R = target: T22, NPY4R (Homo sapiens, UniProt P50391); assay: PRESTO-Tango GPCR screen; conditions: 100 µM
# T22 construct: purchased PRESTO-Tango GPCR kit (Roth lab / Addgene)
# T22 sequence (P50391 whole entry): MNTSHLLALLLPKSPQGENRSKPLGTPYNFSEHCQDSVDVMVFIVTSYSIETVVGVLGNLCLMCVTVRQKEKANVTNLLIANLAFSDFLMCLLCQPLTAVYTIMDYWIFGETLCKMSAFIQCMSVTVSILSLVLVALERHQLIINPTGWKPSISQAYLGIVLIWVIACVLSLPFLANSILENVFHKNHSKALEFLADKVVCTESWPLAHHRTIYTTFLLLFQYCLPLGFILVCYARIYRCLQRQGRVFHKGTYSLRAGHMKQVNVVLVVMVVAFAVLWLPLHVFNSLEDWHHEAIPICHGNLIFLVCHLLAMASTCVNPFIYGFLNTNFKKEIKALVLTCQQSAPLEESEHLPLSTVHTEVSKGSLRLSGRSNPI
# Summary of the method: as §1
# GPR84 = target: T23, GPR84 (Homo sapiens, UniProt Q9NQS5); assay: PRESTO-Tango GPCR screen; conditions: 100 µM
# T23 construct: purchased PRESTO-Tango GPCR kit (Roth lab / Addgene)
# Summary of the method: as §1
# GPR32 = target: T24, GPR32 (Homo sapiens, UniProt O75388); assay: PRESTO-Tango GPCR screen; conditions: 100 µM
# T24 construct: purchased PRESTO-Tango GPCR kit (Roth lab / Addgene)
# Summary of the method: as §1
# CD97 = target: T25, CD97 (Homo sapiens, UniProt P48960); assay: PRESTO-Tango GPCR screen; conditions: 100 µM
# T25 construct: purchased PRESTO-Tango GPCR kit (Roth lab / Addgene)
# Summary of the method: as §1
# HRH2 = target: T26, HRH2 (Homo sapiens, UniProt P25021); assay: PRESTO-Tango GPCR screen and dose-response; conditions: for HRH2 dose-response raw reporter signal (Fig. 5b source data): replicate wells
# T26 construct: expressed in transfected cells; host or cells: HTLA cells (HEK293 line stably expressing β-arrestin-TEV and tTA-Luciferase)
# T26 sequence (P25021 whole entry): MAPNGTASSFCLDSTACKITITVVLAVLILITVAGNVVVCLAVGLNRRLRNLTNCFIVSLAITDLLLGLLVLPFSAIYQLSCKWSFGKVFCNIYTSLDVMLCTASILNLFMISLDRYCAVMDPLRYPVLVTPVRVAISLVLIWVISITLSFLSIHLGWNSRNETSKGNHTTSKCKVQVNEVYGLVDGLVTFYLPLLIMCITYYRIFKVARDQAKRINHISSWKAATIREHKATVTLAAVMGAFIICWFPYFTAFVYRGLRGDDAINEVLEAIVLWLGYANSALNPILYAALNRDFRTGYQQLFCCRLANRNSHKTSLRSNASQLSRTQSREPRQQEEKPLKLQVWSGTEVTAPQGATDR
# Summary of the method: as §1
# HRH1 = target: T27, HRH1 (Homo sapiens, UniProt P35367); assay: PRESTO-Tango GPCR screen and dose-response; conditions: for HRH1 dose-response raw reporter signal (Fig. 5b source data): replicate wells
# T27 construct: expressed in transfected cells; host or cells: HTLA cells (HEK293 line stably expressing β-arrestin-TEV and tTA-Luciferase)
# T27 sequence (P35367 whole entry): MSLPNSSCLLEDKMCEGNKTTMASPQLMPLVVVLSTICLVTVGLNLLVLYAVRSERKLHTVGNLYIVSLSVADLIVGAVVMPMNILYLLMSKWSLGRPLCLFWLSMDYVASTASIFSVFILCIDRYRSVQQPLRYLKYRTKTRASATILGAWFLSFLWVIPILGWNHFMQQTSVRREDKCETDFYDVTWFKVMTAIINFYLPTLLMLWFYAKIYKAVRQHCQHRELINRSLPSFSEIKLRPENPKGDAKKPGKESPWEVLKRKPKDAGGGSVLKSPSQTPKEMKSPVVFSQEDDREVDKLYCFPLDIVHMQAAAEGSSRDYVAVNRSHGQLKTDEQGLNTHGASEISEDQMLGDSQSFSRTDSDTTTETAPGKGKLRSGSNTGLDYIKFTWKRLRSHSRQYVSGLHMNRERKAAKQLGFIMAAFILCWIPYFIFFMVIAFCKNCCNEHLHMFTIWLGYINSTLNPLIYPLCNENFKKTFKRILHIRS
# Summary of the method: as §1
# [1] = system: 314-member panel of human G protein-coupled receptors (GPCRs); assay: PRESTO-Tango screen of 314-member human GPCR panel; conditions: 100 µM, HTLA cells
# Procedure: The PRESTO-Tango analyses were performed as previously published. Briefly, HTLA cells, a HEK293 cell line that stably expresses β-arrestin-TEV and tTA-Luciferase (a kind gift from Gilad Barnea, Brown University), were plated in 96-well tissue culture plates (Eppendorf) in DMEM containing 10% FBS and 1% Penicillin/Streptomycin. One day after plating (after reaching approximately 90% confluence), 200 ng per well GPCR-Tango plasmids[37] in 20 μL DMEM were individually mixed with 400 ng polyethylenimine (Polysciences) in an equal volume of DMEM and incubated for 20 min at room temperature before adding the transfection mixture to the HTLA cells. 16-24 h after transfection, medium was replaced with 180 μL fresh DMEM containing 1% Penicillin/Streptomycin and 10 mM HEPES and 20 μL of 3 or 3-Homo to reach a final concentration of 100 μM. Supernatants were aspirated 20 h after stimulation and 50 μl per well of Bright-Glo solution (Promega) diluted 20-fold with PBS containing 20 mM HEPES was added into each well. After 15 min incubation at room temperature, luminescence was quantified using a Spectramax i3x microplate reader (Molecular Devices). Activation fold for each sample was calculated by dividing relative luminescence units (RLU) for each condition by RLUs from PBS control. […]
smiles,measurement,setting,value
CC(C)Cc1ncc(CCCNC(=N)N)[nH]c1=O [compound 3],GPCR activation (heatmap value),MC1R,-1.487
same,GPCR activation (heatmap value),GPR116,-0.4037
same,GPCR activation (heatmap value),AGTR2,-0.3239
same,GPCR activation (heatmap value),BDKBR1,-0.1783
same,GPCR activation (heatmap value),HTR1B,0.5899
same,GPCR activation (heatmap value),CHRM3,-0.8614
same,GPCR activation (heatmap value),KISSPEPTIN-R,0.3199
same,GPCR activation (heatmap value),PK1,-0.4687
same,GPCR activation (heatmap value),ADRB1,0.4729
same,GPCR activation (heatmap value),GHSR,-0.1187
same,GPCR activation (heatmap value),P2RY4,0.7544
same,GPCR activation (heatmap value),GPR75,-1.251
same,GPCR activation (heatmap value),GPR152,-1.289
same,GPCR activation (heatmap value),CHRM1,-1.184
same,GPCR activation (heatmap value),RXFP2,-0.001018
same,GPCR activation (heatmap value),GPR113,-0.04557
same,GPCR activation (heatmap value),DRD4,0.4609
same,GPCR activation (heatmap value),OPN3,0.9288
same,GPCR activation (heatmap value),SSTR3,-0.3508
same,GPCR activation (heatmap value),DRD2,0.05842
same,GPCR activation (heatmap value),HTR2C,0.7228
same,GPCR activation (heatmap value),NPY4R,0.793
same,GPCR activation (heatmap value),GPR84,-0.1947
same,GPCR activation (heatmap value),GPR32,0.07937
same,GPCR activation (heatmap value),CD97,0.5
same,GPCR activation (heatmap value),"HRH2; HRH2, 100 µM",-0.4047
same,HRH2 dose-response raw reporter signal (Fig. 5b source data),HRH2; Log(10)Conc (M) -4,18 and 44 and 35
same,HRH2 dose-response raw reporter signal (Fig. 5b source data),HRH2; Log(10)Conc (M) -5,83 and 74 and 44
same,HRH2 dose-response raw reporter signal (Fig. 5b source data),HRH2; Log(10)Conc (M) -6,38 (2×) and 44
same,HRH2 dose-response raw reporter signal (Fig. 5b source data),HRH2; Log(10)Conc (M) -7,91 and 59 and 47
same,HRH2 dose-response raw reporter signal (Fig. 5b source data),HRH2; Log(10)Conc (M) -8,50 (2×) and 41
same,HRH2 dose-response raw reporter signal (Fig. 5b source data),HRH2; Log(10)Conc (M) -9,44 and 41 and 71
same,HRH2 dose-response raw reporter signal (Fig. 5b source data),HRH2; Log(10)Conc (M) -10,53 and 47 and 59
same,HRH2 dose-response raw reporter signal (Fig. 5b source data),HRH2; Log(10)Conc (M) -11,56 (2×) and 44
same,HRH2 dose-response raw reporter signal (Fig. 5b source data),HRH2; Log(10)Conc (M) -12,41 (2×) and 27
same,HRH2 dose-response raw reporter signal (Fig. 5b source data),HRH2; Log(10)Conc (M) -13,29 and 47 and 56
same,HRH2 dose-response raw reporter signal (Fig. 5b source data),HRH2; Log(10)Conc (M) -14,106 and 71 and 50
same,HRH2 dose-response raw reporter signal (Fig. 5b source data),HRH2; Log(10)Conc (M) -15,100 and 35 and 29
same,GPCR activation (heatmap value),"HRH1; HRH1, 100 µM",0.7784
same,HRH1 dose-response raw reporter signal (Fig. 5b source data),HRH1; Log(10)Conc (M) -4,68060 and 70767
same,HRH1 dose-response raw reporter signal (Fig. 5b source data),HRH1; Log(10)Conc (M) -5,51882 and 55219
same,HRH1 dose-response raw reporter signal (Fig. 5b source data),HRH1; Log(10)Conc (M) -6,48232 and 47554
same,HRH1 dose-response raw reporter signal (Fig. 5b source data),HRH1; Log(10)Conc (M) -7,45272 and 47466
same,HRH1 dose-response raw reporter signal (Fig. 5b source data),HRH1; Log(10)Conc (M) -8,44320 and 47843
same,HRH1 dose-response raw reporter signal (Fig. 5b source data),HRH1; Log(10)Conc (M) -9,43919 and 48335
same,HRH1 dose-response raw reporter signal (Fig. 5b source data),HRH1; Log(10)Conc (M) -10,42578 and 45208
same,HRH1 dose-response raw reporter signal (Fig. 5b source data),HRH1; Log(10)Conc (M) -11,43999 and 46555
same,HRH1 dose-response raw reporter signal (Fig. 5b source data),HRH1; Log(10)Conc (M) -12,42215 and 46142
same,HRH1 dose-response raw reporter signal (Fig. 5b source data),HRH1; Log(10)Conc (M) -13,45172 and 46997
same,HRH1 dose-response raw reporter signal (Fig. 5b source data),HRH1; Log(10)Conc (M) -14,41526 and 48557
same,HRH1 dose-response raw reporter signal (Fig. 5b source data),HRH1; Log(10)Conc (M) -15,37080 and 42401
same,selectivity across the GPCR panel,[1],selective agonists for histamine receptor H4
